For data set [1], the system named is human coronary artery smooth muscle cells. In words: Proliferation of cultured human coronary artery smooth muscle cells. It counts as cell-based. The procedure: The multiple curves represent various concentrations of topotecan ranging from zero to three hundred nanomolar concentrations. […]
Curve 8702 illustrates the percent inhibition for various concentrations. In FIG. 88, the six curves 8802, 8804, 8806, 8808, 8810 and 8812 represent various concentrations of PX867 with various concentrations of sirolimus. […] More specifically, curve 8812 illustrates the percent inhibition for a 240 nM PX-867 concentration. […] This may be compared to curve 8804 which represents a 15 nM PX-867 concentration.

The next data set has as its system cell viability. Nature of the data set: Cell viability assay. It counts as cell-based. An excerpt: The multiple curves represent various concentrations of topotecan ranging from zero to three hundred nanomolar concentrations.
The multiple curves represent various concentrations of etoposide ranging from zero to eight hundred nanomolar concentrations.

A short description of data set [2]: Porcine drug elution PK studies (in vivo release from stent coating). The note with it: for drug remaining in the drug coating: after eight (8) days of implantation, single-layer sirolimus/cilostazol EVA/BMA coating with 100 μg BMA overcoat (FIG. 83).
Another data set has as its system tumor cell lines. The note with it: tumor cell lines (Woo et al. 2002); cited from earlier work.
A short description of data set [3]: In vitro release kinetics from stent coating. The format is physicochemical. To be noted: single-layer sirolimus/cilostazol EVA/BMA coating with 100 μg BMA overcoat (FIG. 83). The text has this:
In the study, the rapamycin and Panzem® are incorporated into different layers of a polymeric coating. In this study, a Bx Velocity stent is coated with a four hundred microgram inner layer and a three hundred microgram outer layer. The inner layer comprises forty-five percent Panzem® and fifty-five percent EVA/BMA (50/50). […] There is no topcoat of just polymer in this study. Curve 7100 illustrates the release kinetics of Panzem® from the coating.
Another critical parameter for the performance of the thrombus resistance of a device coated with cilostazol is the duration of the drug release from the coating. This is of particular significance in the two weeks after device implantation. In the porcine drug elution PK studies of the dual drug eluting coating, both cilostazol and sirolius were slowly released from the coating, resulting in a sustained drug release profile. The purpose of the porcine PK study is to assess the local pharmacokinetics of a drug eluting stent at a given implantation time. Normally three stents are implanted in three different coronary arteries in a pig for a given time point and then retrieved for total drug recovery analysis. […] The stents are extracted and the total amount of drug remaining on the stents is determined by analysis utilizing HPLC (high performance liquid chromatography) for total drug amount. […]

For data set [4], the system named is human coronary artery smooth muscle cell. In words: MTS cytotoxicity assay. It counts as cell-based. To be noted: concentrations up to 30,000.00 nanomolar. The text has this: Typically, a control is utilized to determine baseline toxicity.
On the technique in general: Formazan colour is commonly taken as a measure of viable cells.

Data set [5] in a line: Drug concentration in liquid formulations (liquid chromatography). It counts as physicochemical. The note with it: ethanol, Vitamin E TPGS and water formulation, ethanol less than two percent.
Procedure: The concentrations of each constituent were determined by liquid chromatography and are presented as weight by volume figures.
In another exemplary embodiment, the liquid formulation of sirolimus comprises water and ethanol as co-solvents and Vitamin E TPGS as the excipient. The liquid formulation was created utilizing the following process. Two hundred milligrams of sirolimus and two grams of ethanol were added to a pre-weighed twenty milliliter scintillation vial. The vial was vortexed and sonicated until the sirolimus was completely dissolved. Approximately six hundred milligrams of Vitamin E TPGS was then added to the solution of ethanol and sirolimus. The vial was vortexed again until a clear yellowish solution was obtained. Nitrogen gas was then used to reduce the amount of ethanol in the vial to approximately two hundred twenty-nine milligrams. In a separate vial, three hundred milligrams of Vitamin E TPGS was dissolved in eleven milliliters of purified water while undergoing vortexing. The Vitamin E TPGS and water solution was then added to the first vial containing the sirolimus, Vitamin E TPGS and ethanol. The first vial was then vortexed vigorously and continuously for three minutes.
In another exemplary embodiment, a liquid formulation of CCI-779, a sirolimus analog, is prepared utilizing ethanol, Vitamin E TPGS and water. […]

As to `CC[C@@]1(O)C(=O)OCc2c1cc1n(c2=O)Cc2cc3c(CN(C)C)c(O)ccc3nc2-1` [topotecan], the “effect on anti-proliferative rapamycin dose response curves” value in data set [1] (synchronized cells, two percent fetal bovine serum, topotecan zero to three hundred nanomolar) is given as “potentiate the anti-proliferative activity of rapamycin”. For the same molecule, in the data set with cell viability (concentrations up to one micromolar), the “cytotoxicity in cell viability assay” value is on record as “non-cytotoxic”.
With `CO[C@H]1C[C@@H]2CC[C@@H](C)[C@@](O)(O2)C(=O)C(=O)N2CCCC[C@H]2C(=O)O[C@H]([C@H](C)C[C@@H]2CC[C@@H](O)[C@H](OC)C2)CC(=O)[C@H](C)/C=C(\C)[C@@H](O)[C@@H](OC)C(=O)[C@H](C)C[C@H](C)/C=C/C=C/C=C/1C` [rapamycin], in data set [2], the “drug remaining in the drug coating” value is reported as roughly 80%.
One may read the IC50 as the concentration at which inhibition is half-maximal. For the molecule `CC(/C=C/C(=O)NO)=C\[C@@H](C)C(=O)c1ccc(N(C)C)cc1` [trichostatin A], in data set [1] (in vitro cell culture studies), the “inhibition of human coronary artery smooth muscle cell proliferation” value is given as “completely inhibit”. Besides, the IC50 in data set [1] (in vitro cell culture studies, read-out: anti-proliferative IC50) is roughly 6 nM. Further, the “anti-proliferative IC50's” value with tumor cell lines is reported as “low nM range”.
Regarding `COc1c(C)c2c(c(O)c1C/C=C(\C)CCC(=O)O)C(=O)OC2` [mycophenolic acid], the “effect on anti-proliferative rapamycin dose response curve” value in data set [1] (non-synchronized cells, two percent fetal bovine serum, mycophenolic acid zero to one thousand nanomolar) is reported as “potentiates the anti-proliferative activity of rapamycin”. The “in vivo elution relative to rapamycin” value in data set [2] (EVA/BMA basecoat with 180 μg rapamycin and 180 μg mycophenolic acid, BMA topcoat 0-200 μg) was “elutes more completely over a shorter duration than the rapamycin”.
For `Nc1nc(Cl)nc2c1ncn2[C@H]1C[C@H](O)[C@@H](CO)O1` [Cladribine, 2-chlorodeoxyadenosine], the “inhibition of human coronary artery smooth muscle cell proliferation” value in data set [1] (non-synchronized cells, two percent fetal bovine serum) is recorded as “completely inhibits”. Moreover, the “effect on anti-proliferative rapamycin dose response curves” value in data set [1] (non-synchronized cells, two percent fetal bovine serum, cladribine zero to nine hundred nanomolar) is reported as “potentiate the anti-proliferative activity of rapamycin”. The “in vivo elution relative to rapamycin” value in data set [2] (EVA/BMA basecoat with rapamycin and cladribine, 200 μg BMA topcoat, Yorkshire pigs) is given as “elutes more rapidly than rapamycin”.
For the molecule `O=C1CCc2cc(OCCCCc3nnnn3C3CCCCC3)ccc2N1` [cilostazol, 6[4-(1-cyclohexyl-1H-tetrazol-5-yl)-butoxy]-3,4-dihydro-2-(1H)-quinolinone], the “drug remaining in the drug coating” value in data set [2] is on record as roughly 80%. Further, in data set [3], the “in vitro drug release” value is recorded as roughly 35%.
With `COC[C@H]1OC(=O)/C(=C\N2CCCC2)C2=C(O)C(=O)C3=C([C@H](OC(C)=O)C[C@]4(C)C(=O)CC[C@@H]34)[C@]21C` [PX-867], the “inhibition of coronary artery smooth muscle cell proliferation” value in data set [1] (PX867 alone at a concentration of about 10^−6) is recorded as “one hundred”. Moreover, the “combination effect with sirolimus on percent inhibition” value in data set [1] (cultured cells, PX-867 15 nM to 240 nM with various sirolimus concentrations) is recorded as “strong synergistic effect”.
For the molecule `COc1cc2c(cc1O)CC[C@@H]1[C@@H]2CC[C@]2(C)[C@@H](O)CC[C@@H]12` [Panzem®, 2-methoxyestradiol], in data set [1] (synchronized cells, two percent fetal bovine serum), the anti-proliferative activity result is listed as “extremely effective inhibitor”. Also, the “effect on percent inhibition by rapamycin” value in data set [1] (synchronized cells, two percent fetal bovine serum, Panzem zero to 100 micromolar) was “increases the percent of inhibition of rapamycin alone”. The “cell survival (MTS assay)” value in data set [4] is “do not reduce human coronary artery smooth muscle cell survival”.
As to `CO[C@H]1C[C@@H]2CC[C@@H](C)[C@@](O)(O2)C(=O)C(=O)N2CCCC[C@H]2C(=O)O[C@H]([C@H](C)C[C@@H]2CC[C@@H](OC(=O)C(C)(CO)CO)[C@H](OC)C2)CC(=O)[C@H](C)/C=C(\C)[C@@H](O)[C@@H](OC)C(=O)[C@H](C)C[C@H](C)/C=C/C=C/C=C/1C` [CCI-779], the “concentration in the final solution (HPLC assay)” value in data set [5] was 15000 µg/mL.
For the molecule `COc1cc([C@@H]2c3cc4c(cc3[C@@H](O[C@@H]3O[C@@H]5CO[C@@H](C)O[C@H]5[C@H](O)[C@H]3O)[C@H]3COC(=O)[C@H]23)OCO4)cc(OC)c1O` [etoposide], in data set [1] (non-synchronized cells, two percent fetal bovine serum, etoposide zero to eight hundred nanomolar), the “effect on anti-proliferative rapamycin dose response curves” value is recorded as “potentiate the anti-proliferative activity of rapamycin”. Also, the “cytotoxicity in cell viability assay” value in the data set with cell viability (concentrations up to ten micromolar) was “non-cytotoxic”.

(Values after US20080241215A1, “LOCAL VASCULAR DELIVERY OF PROBUCOL ALONE OR IN COMBINATION WITH SIROLIMUS TO TREAT RESTENOSIS, VULNERABLE PLAQUE, AAA AND STROKE” (priority 2007, published 2008).)
